Results: patent US6525001B1, “Substituted pyrimidine and pyridine herbicides” (Mid-American Commercialization Corporation, priority 1997, dated 2003)

What was measured:
Assay in all cases: Test B pre-/postemergence
Assay type in all cases: in vivo
Set-up in all cases: key: 0 is no effect; 10 is complete control
[1] = test system: velvetleaf (Abutilon theophrasti)
Outline: (§1)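 Response scores run from 0, meaning no effect, to 10, meaning complete control, assigned by eye relative to controls twelve to sixteen days after spraying. Treatment was both preemergence on planted seed and postemergence on plants at the 1- to 4-leaf stage.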

soybean (Glycine max) = test system: soybean (Glycine max)
Outline: as §1

[2] = test system: purple nutsedge (Cyperus rotundus); conditions: for Plant response rating, Nutsedge: Postemergence; for Nutsedge plant response rating: Preemergence
Outline: as §1

[3] = test system: crabgrass (Digitaria sanguinalis)
Outline: as §1

[4] = test system: momingglory (Ipomoea hederacea)
Outline: as §1

[5] = test system: sugar beet (Beta vulgaris)
Outline: as §1

corn (Zea mays) = test system: corn (Zea mays)
Outline: as §1

[6] = test system: giant foxtail (Setaria faberii)
Outline: as §1

[7] = test system: wheat (Triticum aestivum)
Outline: as §1

[8] = test system: pigweed (Amaranthus retroflexus)
Outline: as §1

[9] = test system: cocklebur (Xanthium strumarium)
Outline: as §1

[10] = test system: bedstraw (Galium aparine)
Outline: as §1

wild oat (Avena fatua) = test system: wild oat (Avena fatua)
Outline: as §1

rape (Brassica napus) = test system: rape (Brassica napus)
Outline: as §1

SMILES: CCc1cnc(-c2ccc(C(F)(F)F)cc2)nc1Cc1cccc(C(F)(F)F)c1 [Compound 22]
- Plant response rating, Velvetleaf ([1]; Rate 62 g/ha, Postemergence): 8
- Velvetleaf plant response rating ([1]; Rate 62 g/ha, Preemergence): 8
- Plant response rating, Velvetleaf ([1]; Rate 125 g/ha, Postemergence): 8
- Velvetleaf plant response rating ([1]; Rate 125 g/ha, Preemergence): 8
- Plant response rating, Velvetleaf ([1]; Rate 250 g/ha, Postemergence): 9
- Plant response rating, Velvetleaf ([1]; Rate 250 g/ha, Preemergence): 8
- Plant response rating, Soybean (soybean (Glycine max); Rate 62 g/ha, Postemergence): 6
- Soybean plant response rating (soybean (Glycine max); Rate 62 g/ha, Preemergence): 1
- Plant response rating, Soybean (soybean (Glycine max); Rate 125 g/ha, Postemergence): 7
- Soybean plant response rating (soybean (Glycine max); Rate 125 g/ha, Preemergence): 1
- Plant response rating, Soybean (soybean (Glycine max); Rate 250 g/ha, Postemergence): 8
- Plant response rating, Soybean (soybean (Glycine max); Rate 250 g/ha, Preemergence): 2
- Plant response rating, Nutsedge ([2]; Rate 62 g/ha): 0
- Nutsedge plant response rating ([2]; Rate 62 g/ha): 0
- Plant response rating, Nutsedge ([2]; Rate 125 g/ha): 0
- Nutsedge plant response rating ([2]; Rate 125 g/ha): 1
- Plant response rating, Crabgrass ([3]; Rate 62 g/ha, Postemergence): 9
- Crabgrass plant response rating ([3]; Rate 62 g/ha, Preemergence): 7
- Plant response rating, Crabgrass ([3]; Rate 125 g/ha, Postemergence): 9
- Crabgrass plant response rating ([3]; Rate 125 g/ha, Preemergence): 10
- Plant response rating, Crabgrass ([3]; Rate 250 g/ha, Postemergence): 9
- Plant response rating, Crabgrass ([3]; Rate 250 g/ha, Preemergence): 10
- Plant response rating, Morningglory ([4]; Rate 62 g/ha, Postemergence): 10
- Morningglory plant response rating ([4]; Rate 62 g/ha, Preemergence): 3
- Plant response rating, Morningglory ([4]; Rate 125 g/ha, Postemergence): 10
- Morningglory plant response rating ([4]; Rate 125 g/ha, Preemergence): 10
- Plant response rating, Morningglory ([4]; Rate 250 g/ha, Postemergence): 10
- Plant response rating, Morningglory ([4]; Rate 250 g/ha, Preemergence): 10
- Plant response rating, Sugarbeets ([5]; Rate 62 g/ha, Postemergence): 10
- Sugarbeets plant response rating ([5]; Rate 62 g/ha, Preemergence): 9
- Plant response rating, Sugarbeets ([5]; Rate 125 g/ha, Postemergence): 10
- Sugarbeets plant response rating ([5]; Rate 125 g/ha, Preemergence): 9
- Plant response rating, Sugarbeets ([5]; Rate 250 g/ha, Postemergence): 10
- Plant response rating, Sugarbeets ([5]; Rate 250 g/ha, Preemergence): 10
- Plant response rating, Corn (corn (Zea mays); Rate 62 g/ha, Postemergence): 3
- Corn plant response rating (corn (Zea mays); Rate 62 g/ha, Preemergence): 0
- Plant response rating, Corn (corn (Zea mays); Rate 125 g/ha, Postemergence): 3
- Corn plant response rating (corn (Zea mays); Rate 125 g/ha, Preemergence): 0
- Plant response rating, Corn (corn (Zea mays); Rate 250 g/ha, Postemergence): 4
- Plant response rating, Corn (corn (Zea mays); Rate 250 g/ha, Preemergence): 2
- Plant response rating, Giant foxtail ([6]; Rate 62 g/ha, Postemergence): 6
- Giant foxtail plant response rating ([6]; Rate 62 g/ha, Preemergence): 9
- Plant response rating, Giant foxtail ([6]; Rate 125 g/ha, Postemergence): 6
- Giant foxtail plant response rating ([6]; Rate 125 g/ha, Preemergence): 10
- Plant response rating, Giant foxtail ([6]; Rate 250 g/ha, Postemergence): 8
- Plant response rating, Giant foxtail ([6]; Rate 250 g/ha, Preemergence): 10
- Plant response rating, Wheat ([7]; Rate 62 g/ha, Postemergence): 4
- Wheat plant response rating ([7]; Rate 62 g/ha, Preemergence): 2
- Plant response rating, Wheat ([7]; Rate 125 g/ha, Postemergence): 4
- Wheat plant response rating ([7]; Rate 125 g/ha, Preemergence): 2
- Plant response rating, Wheat ([7]; Rate 250 g/ha, Postemergence): 6
- Plant response rating, Wheat ([7]; Rate 250 g/ha, Preemergence): 4
- Plant response rating, Redroot pigweed ([8]; Rate 62 g/ha, Postemergence): 10
- Redroot pigweed plant response rating ([8]; Rate 62 g/ha, Preemergence): 9
- Plant response rating, Redroot pigweed ([8]; Rate 125 g/ha, Postemergence): 10
- Redroot pigweed plant response rating ([8]; Rate 125 g/ha, Preemergence): 10
- Plant response rating, Redroot pigweed ([8]; Rate 250 g/ha, Postemergence): 10
- Plant response rating, Redroot pigweed ([8]; Rate 250 g/ha, Preemergence): 10
- Plant response rating, Cocklebur ([9]; Rate 62 g/ha, Postemergence): 8
- Cocklebur plant response rating ([9]; Rate 62 g/ha, Preemergence): 1
- Plant response rating, Cocklebur ([9]; Rate 125 g/ha, Postemergence): 8
- Cocklebur plant response rating ([9]; Rate 125 g/ha, Preemergence): 1
- Plant response rating, Cocklebur ([9]; Rate 250 g/ha, Postemergence): 8
- Plant response rating, Cocklebur ([9]; Rate 250 g/ha, Preemergence): 2
- Bedstraw plant response rating ([10]; Rate 62 g/ha, Preemergence): 6
- Plant response rating, Bedstraw ([10]; Rate 125 g/ha, Postemergence): 8
- Bedstraw plant response rating ([10]; Rate 125 g/ha, Preemergence): 7
- Plant response rating, Bedstraw ([10]; Rate 250 g/ha, Postemergence): 8
- Plant response rating, Bedstraw ([10]; Rate 250 g/ha, Preemergence): 7
- Plant response rating, Wild oats (wild oat (Avena fatua); Rate 62 g/ha, Postemergence): 5
- Wild oats plant response rating (wild oat (Avena fatua); Rate 62 g/ha, Preemergence): 7
- Plant response rating, Wild oats (wild oat (Avena fatua); Rate 125 g/ha, Postemergence): 6
- Wild oats plant response rating (wild oat (Avena fatua); Rate 125 g/ha, Preemergence): 8
- Plant response rating, Wild oats (wild oat (Avena fatua); Rate 250 g/ha, Postemergence): 8
- Plant response rating, Wild oats (wild oat (Avena fatua); Rate 250 g/ha, Preemergence): 9
- Plant response rating, Rape (rape (Brassica napus); Rate 62 g/ha, Postemergence): 10
- Rape plant response rating (rape (Brassica napus); Rate 62 g/ha, Preemergence): 5
- Plant response rating, Rape (rape (Brassica napus); Rate 125 g/ha, Postemergence): 10
- Rape plant response rating (rape (Brassica napus); Rate 125 g/ha, Preemergence): 7
- Plant response rating, Rape (rape (Brassica napus); Rate 250 g/ha, Postemergence): 10
- Plant response rating, Rape (rape (Brassica napus); Rate 250 g/ha, Preemergence): 10
